Source: PubChem BioAssay AID248 (DTP/NCI, 2004)
Where “and” joins values, the source holds several entries; their conditions need not be identical. Identical values can stand only once. Inconclusive results and toxic doses are left out. Rule as the data show it: active = T/C of 150% or more; inactive = T/C below 125%.

Test system: L1210 leukemia ip in BDF1 mice, survival T/C
Assay: NCI In Vivo Anticancer Drug Screen. Data for tumor model L1210 Leukemia (intraperitoneal) in B6D2F1 (BDF1) mice
Settings: endpoint: mean survival time, higher = longer survival
In short: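 Tumor was transplanted into mice, which were then dosed with test compound or vehicle alone. Survival was recorded for each group, and the treated figure was expressed relative to the control figure.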

[1] = dose: 50.0 mg/kg/injection, schedule: Q01DX001 (ip), vehicle: carboxymethylcellulose (CMC)
[2] = dose: 100.0 mg/kg/injection, schedule: Q01DX001 (ip), vehicle: carboxymethylcellulose (CMC)
[3] = dose: 100.0 mg/kg/injection, schedule: Q01DX009 (ip), vehicle: Klucel (hydroxypropylcellulose) (HPC)
[4] = dose: 100.0 mg/kg/injection, schedule: Q04DX003 (ip), vehicle: Klucel (hydroxypropylcellulose) (HPC)
[5] = dose: 200.0 mg/kg/injection, schedule: Q01DX001 (ip), vehicle: carboxymethylcellulose (CMC)
[6] = dose: 200.0 mg/kg/injection, schedule: Q01DX009 (ip), vehicle: Klucel (hydroxypropylcellulose) (HPC)
[7] = dose: 200.0 mg/kg/injection, schedule: Q04DX003 (ip), vehicle: Klucel (hydroxypropylcellulose) (HPC)
[8] = dose: 400.0 mg/kg/injection, schedule: Q01DX001 (ip), vehicle: carboxymethylcellulose (CMC)
[9] = dose: 400.0 mg/kg/injection, schedule: Q04DX003 (ip), vehicle: Klucel (hydroxypropylcellulose) (HPC)
[10] = dose: 100.0 mg/kg/injection, schedule: Q01DX001 (ip), vehicle: saline
[11] = dose: 200.0 mg/kg/injection, schedule: Q01DX001 (ip), vehicle: saline
[12] = dose: 400.0 mg/kg/injection, schedule: Q01DX001 (ip), vehicle: saline
[13] = dose: 100.0 mg/kg/injection, schedule: Q04DX002 (ip), vehicle: saline
[14] = dose: 25.0 mg/kg/injection, schedule: Q01DX009 (ip), vehicle: Klucel (hydroxypropylcellulose) (HPC)
[15] = dose: 50.0 mg/kg/injection, schedule: Q01DX009 (ip), vehicle: Klucel (hydroxypropylcellulose) (HPC)
[16] = dose: 100.0 mg/kg/injection, schedule: Q04DX003 (ip), vehicle: saline with Tween-80
[17] = dose: 100.0 mg/kg/injection, schedule: Q01DX009 (ip), vehicle: saline
[18] = dose: 200.0 mg/kg/injection, schedule: Q01DX009 (ip), vehicle: saline

Measured: T/C

O=C(O)c1cccc([N+](=O)[O-])c1O
inactive: dose: 12.5 mg/kg/injection, schedule: Q04DX002 (ip), vehicle: saline with Tween-80 95 % of control | dose: 25.0 mg/kg/injection, schedule: Q04DX002 (ip), vehicle: saline with Tween-80 95 % of control | [1] 97 % of control | dose: 50.0 mg/kg/injection, schedule: Q04DX002 (ip), vehicle: saline with Tween-80 100 % of control | [2] 87 % of control | [3] 103 % of control | [4] 93 % of control | [5] 87 % of control | [6] 95 % of control | [7] 90 % of control | [8] 92 % of control | dose: 400.0 mg/kg/injection, schedule: Q01DX009 (ip), vehicle: Klucel (hydroxypropylcellulose) (HPC) 93 % of control | [9] 96 % of control

C(=N/N=C(/C(=N/N=C/c1ccccc1)c1ccccc1)c1ccccc1)\c1ccccc1
inactive: [10] 94 % of control | [11] 95 % of control | [12] 97 % of control

O=C1OC(c2ccc(Cl)cc2)=N/C1=C\c1c(Cl)cccc1Cl
inactive: [13] 93 % of control | dose: 200.0 mg/kg/injection, schedule: Q04DX002 (ip), vehicle: saline 107 % of control | dose: 400.0 mg/kg/injection, schedule: Q04DX002 (ip), vehicle: saline 118 % of control

O=C(O)C1C(C(=O)O)C(c2ccccc2)C1c1ccccc1 (stereo not drawn)
inactive: [1] 90 % of control | [2] 97 % of control | [5] 103 % of control | [8] 90 % of control

CC1=NCCCN=C(C)C(C)=NCCCN=C1C.[Br][Co][Br]
inactive: [14] 100 % of control | [15] 96 % of control | [3] 95 % of control | [4] 106 % of control | [6] 110 % of control | [7] 90 % of control

Cc1ccc(C2C(C(=O)N3CCN(C)CC3)C2c2ccccc2)cc1 (stereo not drawn)
inactive: dose: 25.0 mg/kg/injection, schedule: Q04DX002 (ip), vehicle: saline 98 % of control | dose: 50.0 mg/kg/injection, schedule: Q04DX002 (ip), vehicle: saline 98 % of control | [13] 95 % of control

Clc1nc2nc(C(Cl)(Cl)Cl)[nH]c2nc1Cl
inactive: dose: 6.25 mg/kg/injection, schedule: Q01DX009 (ip), vehicle: Klucel (hydroxypropylcellulose) (HPC) 103 % of control | dose: 12.5 mg/kg/injection, schedule: Q01DX009 (ip), vehicle: Klucel (hydroxypropylcellulose) (HPC) 102 % of control | [14] 115 % of control | [15] 105 % of control | [4] 97 % of control | [7] 100 % of control

CC(C)(C)C1CCC2(CC1)CCN(CCCN1CCCCCC1)CC2
inactive: dose: 50.0 mg/kg/injection, schedule: Q01DX001 (ip), vehicle: saline 96 % of control | [10] 107 % of control

O=c1ccoc(-c2cc(=O)cco2)c1
inactive: dose: 25.0 mg/kg/injection, schedule: Q04DX003 (ip), vehicle: saline with Tween-80 97 % of control | dose: 50.0 mg/kg/injection, schedule: Q04DX003 (ip), vehicle: saline with Tween-80 93 % of control | [16] 95 % of control

CNC(=O)NC1CCOCC1
inactive: [10] 100 % of control | [11] 96 % of control | [12] 96 % of control

CN(C)Cc1ccc([N+](=O)[O-])cc1
inactive: dose: 25.0 mg/kg/injection, schedule: Q01DX009 (ip), vehicle: saline 93 % of control | dose: 50.0 mg/kg/injection, schedule: Q01DX009 (ip), vehicle: saline 98 % of control | dose: 75.0 mg/kg/injection, schedule: Q01DX001 (ip), vehicle: other 98 % of control | [17] 101 % of control | dose: 100.0 mg/kg/injection, schedule: Q04DX003 (ip), vehicle: saline 95 % of control | [18] 96 % of control | dose: 200.0 mg/kg/injection, schedule: Q04DX003 (ip), vehicle: saline 87 % of control

O=C(O)C(C(=O)O)C(=O)O
inactive: dose: 75.0 mg/kg/injection, schedule: Q01DX001 (ip), vehicle: saline 94 % of control | dose: 150.0 mg/kg/injection, schedule: Q01DX001 (ip), vehicle: saline 94 % of control

CCNC(=O)c1cc(NCC)nc(Cl)n1
inactive: [4] 97 % of control | [7] 94 % of control | [9] 101 % of control

O=S(=O)(/C=C/c1ccc(Cl)cc1)c1ccccc1
inactive: [10] 102 % of control | [17] 91 % of control | [11] 104 % of control | [18] 96 % of control | [12] 102 % of control | dose: 400.0 mg/kg/injection, schedule: Q01DX009 (ip), vehicle: saline 94 % of control

CCOP(=O)(NC1C2CCC(C2)C1C)OCC (stereo not drawn)
inactive: [11] 98 % of control | [12] 102 % of control

CCOC(=O)/C(=N/N=C(N)N)c1c(C)[nH]c2ccccc12
inactive: dose: 15.0 mg/kg/injection, schedule: Q01DX Z (ip), vehicle: carboxymethylcellulose (CMC) 102 % of control | dose: 30.0 mg/kg/injection, schedule: Q01DX Z (ip), vehicle: carboxymethylcellulose (CMC) 100 % of control | dose: 60.0 mg/kg/injection, schedule: Q01DX Z (ip), vehicle: carboxymethylcellulose (CMC) 95 % of control and 100 % of control | dose: 120.0 mg/kg/injection, schedule: Q01DX Z (ip), vehicle: carboxymethylcellulose (CMC) 93 % of control and 100 % of control | dose: 240.0 mg/kg/injection, schedule: Q01DX Z (ip), vehicle: carboxymethylcellulose (CMC) 100 % of control | dose: 240.0 mg/kg/injection, schedule: Q01DX Z (sc), vehicle: carboxymethylcellulose (CMC) 112 % of control | dose: 480.0 mg/kg/injection, schedule: Q01DX Z (ip), vehicle: carboxymethylcellulose (CMC) 90 % of control | dose: 480.0 mg/kg/injection, schedule: Q01DX Z (sc), vehicle: carboxymethylcellulose (CMC) 114 % of control | dose: 960.0 mg/kg/injection, schedule: Q01DX Z (sc), vehicle: carboxymethylcellulose (CMC) 120 % of control | dose: 1920.0 mg/kg/injection, schedule: Q01DX Z (sc), vehicle: carboxymethylcellulose (CMC) 103 % of control

CCOC(=O)c1cc(=O)ss1
inactive: dose: 50.0 mg/kg/injection, schedule: Q01DX009 (ip), vehicle: saline with Tween-80 100 % of control | dose: 100.0 mg/kg/injection, schedule: Q01DX009 (ip), vehicle: saline with Tween-80 101 % of control | [16] 96 % of control | dose: 200.0 mg/kg/injection, schedule: Q01DX009 (ip), vehicle: saline with Tween-80 92 % of control | dose: 200.0 mg/kg/injection, schedule: Q04DX003 (ip), vehicle: saline with Tween-80 97 % of control | dose: 400.0 mg/kg/injection, schedule: Q01DX009 (ip), vehicle: saline with Tween-80 94 % of control | dose: 400.0 mg/kg/injection, schedule: Q04DX003 (ip), vehicle: saline with Tween-80 106 % of control

CNc1cccc([N+](=O)[O-])c1
inactive: [10] 95 % of control | [11] 103 % of control

Nc1ccc2c(c1)C(O)c1cc(Br)ccc1-2 (stereo not drawn)
inactive: [2] 108 % of control | [5] 100 % of control | [8] 105 % of control
